Experimental data published in patent publication US20110044952A1, “AMPLIFICATION OF CANCER-SPECIFIC ONCOLYTIC VIRAL INFECTION BY HISTONE DEACETYLASE INHIBITORS” (Ottawa Health Research Institute, priority 2007, published 2011).
Entries after “also recorded” stand apart in the source; their conditions may differ. Where two headings read alike, the source gives them in different places.

Key:
[1] = tested on: DBT glioma cells; details: mouse
[2] = tested on: PC3 cells; format: cell-based
[3] = tested on: IFN antiviral response; format: cell-based
[4] = tested on: VSVΔ51-Luc; set-up: species or system CD1 nude mice; details: mouse, in vivo
[5] = tested on: VSVΔ51 neutralizing antibody; details: mouse, in vivo
[6] = tested on: normal PBMCs
[7] = tested on: IFN-α; format: cell-based, human
[8] = tested on: VSV-d51-GFP
[9] = tested on: IFN antiviral response pathway; format: cell-based
[10] = tested on: VVDD; format: cell-based, vaccinia virus
[11] = tested on: primary prostate cancer cells; format: cell-based
[12] = tested on: VSV-d51-GFP; format: cell-based
[13] = tested on: VSVΔ51-Luc; set-up: species or system BALB/c mice; details: mouse, in vivo, 20 mg/kg
[14] = tested on: semliki forest virus (VA7); assay: Semliki forest virus (VA7) spread and titers in glioma cell lines; format: cell-based
[15] = tested on: VVDD; format: cell-based, vaccinia virus; details: TSA 0.156 μM 3 hours pre-treatment
[16] = tested on: B16-F10-lacZ; assay: B16-F10-lacZ lung metastasis model; format: in vivo, C57BI6 mice; details: 0.05 mg TSA i.p. daily to day 4 + 10^7 pfu VVdd i.v. twice; lungs day 14; p<0.05 vs PBS, VVdd or TSA single treatments
[17] = tested on: VSV-d51-GFP; format: cell-based; details: 24 hours

CCC(=O)CCCCC[C@@H]1NC(=O)[C@H]2CCCCN2C(=O)[C@H]([C@@H](C)CC)NC(=O)[C@H](Cc2cn(OC)c3ccccc23)NC1=O [Apicidin]
VA7-mediated cytotoxicity (cell viability) [1]: enhance VA7-mediated cytotoxicity

Nc1ccccc1NC(=O)c1ccc(CNC(=O)OCc2cccnc2)cc1 [MS-275]
VSV in spleen and lungs (24 hours): sensitive/permissive to VSV | VSV in spleen and lungs (72 hours): started to clear out | loss of total weight (mouse, in vivo): approximately 15% | survival of mice (mouse, in vivo): all of the mice survived | VSV biodistribution in major organs (mouse, in vivo, iv): comparable results of viral spread and replication in major organs | JC-1 green fluorescence (mitochondrial membrane potential) [2]: increased JC-1 green fluorescence | activation of caspase 9 (immunoblot) [2]: significant activation | number of Annexin V-positive apoptotic cells (flow cytometry) [2]: synergistically enhanced the number of Annexin V-positive apoptotic cells | visible signs of cell death (phase-contrast microscopy) [2]: not able to induce visible signs of cell death | induction of MxA mRNA [3]: decreased the induction of MxA mRNA | level of IFN-β mRNA [3]: significantly lower; also recorded: undetectable levels | VSV antigen in tumors (IHC of frozen sections) [4]: more abundant presence of VSV antigen | viral replication in tumor-bearing mice (IVIS) ([4]; ip): more robust viral replication | VSV replication in SW620 tumors ([4]; iv): enhancing effect | VSV neutralizing antibody production [5]: Inhibit | VSV-G specific antibody production (miniblot) [5]: Inhibit | VSV-GFP replication (flow cytometry) [6]: did not increase VSV-GFP replication | IFN production (IFN-α ELISA) [7]: significantly inhibited IFN production | sensitivity of normal tissue to VSV infection [8]: specific towards cancer cells | IRF3 phosphorylation [9]: allowed detection of IRF3 phosphorylation and concomitant degradation | activation of IRF7, ISG56 and RIG-I [9]: inhibited | replication of VVDD [10]: able to synergize the replication of VVDD in 4T1, B16 and SW620 cells | VSV replication (GFP, flow cytometry) [11]: allowed effective VSV replication | VSV replication (GFP-positive cells, fluorescent microscopy) [12]: allowed effective VSV replication | viral replication (IVIS) [13]: more robust and persistent viral replication

O=C(CCCCCCC(=O)Nc1ccccc1)NO [SAHA, suberoylanilide hydroxamic acid]
JC-1 green fluorescence (mitochondrial membrane potential) [2]: increased JC-1 green fluorescence | activation of caspase 9 (immunoblot) [2]: significant activation | number of Annexin V-positive apoptotic cells (flow cytometry) [2]: synergistically enhanced the number of Annexin V-positive apoptotic cells | visible signs of cell death (phase-contrast microscopy) [2]: not able to induce visible signs of cell death | induction of MxA mRNA [3]: decreased the induction of MxA mRNA | level of IFN-β mRNA [3]: significantly lower; also recorded: undetectable levels | VSV-GFP replication (flow cytometry) [6]: did not increase VSV-GFP replication | VA7 viral titers (pfu/ml) ([14]; SAHA 5 μM or Apicidin 1 μM 1 hour pre-treatment, MOI 0.01, DBT, CT2A, U251 cells, vs DMSO): enhanced the viral titers | Semliki forest virus spread (GFP photomicrographs) ([14]; SAHA 5 μM or Apicidin 1 μM, DBT cells, MOI 0.01, 30 hours): Enhance | IFN production (IFN-α ELISA) [7]: significantly inhibited IFN production | sensitivity of normal tissue to VSV infection [8]: specific towards cancer cells | IRF3 phosphorylation [9]: allowed detection of IRF3 phosphorylation and concomitant degradation | activation of IRF7, ISG56 and RIG-I [9]: inhibited | VSV replication (GFP, flow cytometry) [11]: allowed effective VSV replication | VSV replication (GFP-positive cells, fluorescent microscopy) [12]: allowed effective VSV replication | VA7-mediated cytotoxicity (cell viability) [1]: enhance VA7-mediated cytotoxicity

CC(/C=C/C(=O)NO)=C\[C@@H](C)C(=O)c1ccc(N(C)C)cc1 [Trichostatin A]
VVdd spread (GFP photomicrographs) ([15]; MOI 0.1, 48 h): Increases | VVdd titers (pfu/ml) ([15]; MOI 0.1, 72 h): Increases | number of lung metastases [16]: Reduces the Number of Metastases

IFN-α
cell permissiveness to viral infection (GFP expression) [17]: decrease cell permissiveness to viral infection

z-VAD-fmk
activation of apoptosis by VSV+MS-275 or VSV+SAHA (Annexin V) [2]: abrogated activation of apoptosis
